From patent publication US20120064008A1, “COMPOSITIONS FOR THE TREATMENT OF METASTATIC CANCER AND METHODS OF USE THEREOF” (priority 2009, published 2012)
Like-named read-outs stand apart in the source and are kept apart here.

Legend:
[1] = test system: PC-3TxR cells; assay: Subcutaneous PC-3TxR tumors in nude mice; type: in vivo; settings: 10 mg/kg three times a week for 3 weeks
Experimental: PC-3TxR cells were inoculated subcutaneously in the flanks of the nude mice. When the tumors reached approximately 100 mm^3 in size, the mice were treated with vehicle, paclitaxel (10 mg/kg), fenbendazole (100 mg/kg) or albendazole (100 mg/kg) three times a week for 3 weeks. These benzimidazoles were prepared in DNTC and diluted with saline prior to injection.
PC-3TxR cells were inoculated subcutaneously in the flanks of the nude mice. When the tumors reached approximately 100 mm3 in size, the mice were treated with vehicle, paclitaxel (10 mg/kg), fenbendazole (100 mg/kg) or albendazole (100 mg/kg) three times a week for 3 weeks. These benzimidazoles were prepared in DNTC and diluted with saline prior to injection.

[2] = test system: PC3 cells; assay: Normalized mitotic index, PC3; type: cell-based, human; settings: 100 nM
[3] = test system: AT6.1 Dunning rat prostate carcinoma; assay: Survival in intravenous AT6.1 Dunning rat prostate carcinoma lung metastasis model; type: in vivo, nu/nu mice; settings: 10 mg/kg three times a week
Experimental: Many anti-tumor drugs are tested only for their ability to prevent primary tumor growth or to prevent the dissemination of metastatic cells. To accomplish this, the drug is usually administered shortly after the primary tumor is established. […] The benzimidazoles described herein were evaluated in an experimental metastases model in the lungs of nude mice following tail-vein injection of Dunning rat AT6.1 prostate carcinoma. […] In order to achieve greater bioavailability, we first solubilized benzimidazoles in DNTC formulation and then diluted with saline prior to injection.
Inbred male nu/nu mice age 6-8 weeks were obtained from Massachusetts General Hospital (Boston, Mass.). The mice were virus antibody free, age and weight matched for experimental use and fed with a balanced rodent diet ad libitum. AT6.1 Dunning rat prostate cells were maintained as described above. 1×10^4 log-phase cells were injected via tail vein in 0.1 mL Hanks solution. Vehicle or drug treatment was started on day 5 post inoculation and given three times a week (Monday, Wednesday and Friday) via intraperitoneal injection in 0.5 mL volume. Benzimidazole drugs were prepared in the combination carrier [DMSO (12.5%), NMP (37.5%), TWEEN®-80 (25%) and CrEL (25%)] and diluted in saline. Vehicle control was prepared by diluting the combination carrier with saline.
During the course of treatment, the mice were monitored for toxicity by measuring body weight. […] Animals were euthanized with CO2 and tissues were collected for further analysis. The animals and experiments used in these studies were approved by the institutional animal care committee according to Children's Hospital Boston ARCH guidelines.
To distinguish differences in survival between these groups, the percent increase in life span (ILS %), defined as the percent increase in the mean time to death of drug-treated animals over the corresponding time to death for vehicle-treated mice, was calculated.

[4] = test system: PC3-TR cells; assay: % apoptotic cells, PC3-TR; type: cell-based, human; settings: 100 nM
[5] = test system: DU145 cells; assay: % apoptotic cells, DU145; type: cell-based, human; settings: 100 nM
[6] = test system: AT6.1 cells; assay: Normalized mitotic index (histone H3 phospho-Serine-28), AT6.1; type: cell-based; settings: Rattus norvegicus, at 1 μM; normalized against vehicle-treated cells; read-out: Normalized mitotic index AT6.1
Excerpt: (§1) The mitotic index for each agent was normalized against those obtained from vehicle-treated cells, and compared with the activity of paclitaxel, a known inducer of mitotic arrest.

[7] = Combination with paclitaxel, Cyquant cell growth inhibition, CompuSyn median-dose effect analysis; type: cell-based; settings: alone or in combination, read-out: Dose Tax
Experimental: Cell growth inhibition assays were performed using Cyquant reagent as described above. Drug interactions were quantitated by median-dose effect analysis and combination index values as well as dose reduction index were derived using CompuSyn software (ComboSyn, Inc.), as described previously in the literature. CI values of <1, =1, and >1 indicate synergism, additivity and antagonism between the drugs, respectively.
All benzimidazole drugs were prepared using the combination carrier and diluted with culture medium prior to treatment.

[8] = test system: paclitaxel-resistant PC3-TR prostate cancer cells; assay: Cyquant cell viability assay, PC3-TR; type: cell-based, human; settings: 72 hours
Experimental: (§2) The cytotoxic effects of paclitaxel, fenbendazole, and albendazole were compared in paclitaxel-resistant PC3-TR and DU145-TR prostate cancer cells with their paclitaxel-sensitive counterparts, PC3 and DU145 cells. Cells were treated for 72 hours with vehicle, paclitaxel, fenbendazole or albendazole in various doses. Cell viability was measured using Cyquant assay, and percent control was calculated by dividing the fluorescent reading from drug-treated cells with those from vehicle-treated cells, indicating percentage of cell survival.

[9] = test system: paclitaxel-resistant DU145-TR prostate cancer cells; assay: Cyquant cell viability assay, DU145-TR; type: cell-based, human; settings: 72 hours
Experimental: as §2

[10] = test system: PC3 cells; assay: % apoptotic cells, PC3; type: cell-based, human; settings: 100 nM
[11] = test system: PC-3MLN4 cells; assay: Normalized mitotic index (histone H3 phospho-Serine-28), PC-3MLN4; type: cell-based; settings: Homo sapiens, at 1 μM; normalized against vehicle-treated cells; read-out: Normalized mitotic index PC-3MLN4
Excerpt: as §1

[12] = test system: DU145 cells; assay: Normalized mitotic index, DU145; type: cell-based, human; settings: 100 nM
[13] = test system: DU145-TR cells; assay: % apoptotic cells, DU145-TR; type: cell-based, human; settings: 100 nM
[14] = test system: PC3-TR cells; assay: Normalized mitotic index, PC3-TR; type: cell-based, human; settings: 100 nM
[15] = test system: DU145-TR cells; assay: Normalized mitotic index, DU145-TR; type: cell-based, human; settings: 100 nM
[16] = test system: PC-3M cells; assay: Normalized mitotic index (histone H3 phospho-Serine-28), PC-3M; type: cell-based; settings: Homo sapiens, at 1 μM, normalized against vehicle-treated cells, read-out: Normalized mitotic index PC-3M
Excerpt: as §1

In the case of `CC(=O)O[C@H]1C(=O)[C@@]2(C)[C@H]([C@H](OC(=O)c3ccccc3)[C@]3(O)C[C@H](OC(=O)[C@H](O)[C@@H](NC(=O)c4ccccc4)c4ccccc4)C(C)=C1C3(C)C)[C@]1(OC(C)=O)CO[C@@H]1C[C@@H]2O` [Paclitaxel], the “growth of PC-3TxR tumors compared to the vehicle treated group” value [1] is reported as “significantly greater”, the “Normalized mitotic index (6 hours) PC3” value [2] is reported as 1.32 and the “percent increase in life span (ILS %)” value [3] is reported as 30.2%. The “% Apoptotic cells (72 hours) PC3-TR” value [4] was 8.9%, the “% Apoptotic cells (72 hours) DU145” value [5] was 37.3% and the fold induction at 1 µM [6] was 2.1. It also gave an EC50 ([7]; Fa 0.50, listed as Tax) of 937 nM, an EC50 ([7]; Fa 0.50) of 936 nM and an EC50 ([7]; Fa 0.60) of 1392 nM. For the same molecule, the “cytotoxic effect against PC3-TR (PC-3TxR)” value [8] was “refractory”, the “cytotoxic effect against PC3-TR (PC-3TxR)” value ([8]; listed as taxol) was “less effective” and the “cytotoxic effect against DU145-TR (DU-145TxR)” value [9] was “refractory”. For the same molecule, the “cytotoxic effect against DU145-TR (DU-145TxR)” value ([9]; listed as taxol) was “less effective”, the “% Apoptotic cells (72 hours) PC3” value [10] was 16.4% and the fold induction at 1 µM [11] was 2.34. The “Normalized mitotic index (6 hours) DU145” value [12] was 3.52, the “% Apoptotic cells (72 hours) DU145-TR” value [13] was 11.5% and the “Normalized mitotic index (6 hours) PC3-TR” value [14] was 1.56. The “Normalized mitotic index (6 hours) DU145-TR” value [15] was 0.86 and the fold induction at 1 µM [16] was 2.43.
